According to US20210395327A1, “Growth Hormone-Releasing Hormone Antagonists and Uses Thereof” (United States Government As Represented By The Department …, priority 2019, published 2021):
pIC50: −log10 of the molar value. Like-named read-outs stand apart in the source and are kept apart here. Non-standard residues stand in square brackets, D forms with d. Residues, ends and D or L forms follow the SMILES beside them. *: point of attachment. Phenylacetyl(2,3,4,5,6-F5) = O=C(Cc1c(F)c(F)c(F)c(F)c1F)*; Phe(4-Cl) = N[C@@H](Cc1ccc(Cl)cc1)C(=O)O; hArg = N=C(N)NCCCC[C@H](N)C(=O)O; 12Ado = NCCCCCCCCCCCC(=O)O; Nle = CCCC[C@H](N)C(=O)O; Orn = NCCC[C@H](N)C(=O)O; Abu = CC[C@H](N)C(=O)O; PhAc = O=C(Cc1ccccc1)*; Aoc = NCCCCCCCC(=O)O

Tests used:
[1] = system: CFPAC-1 pancreatic cancer cells; assay: In vitro cell viability, CFPAC-1; type: cell-based, human; conditions: antagonist 5 μM for 72 h, cell proliferation assay; MIA602 = 1
Protocol: (§1) The inhibitory effects of the various synthesized GHRH antagonists were tested in cell proliferation assays in various human cancer cell lines including stomach cancer (KATOIII, N87), colon cancer (HT-29), urothelial cancer (J82, RT4), pancreatic cancer (PANC-1, CFPAC-1), prostatic cancer (PC3), breast cancer (MX-1, HCC1806), ovarian cancer (SK-OV-3, OVCAR-3) and lung cancer (HCC827, H460).
(§2) Cell culture. Human cancer cell lines including pancreatic (PANC-1 and CFPAC-1), lung (HCC827 and H460), stomach (NCI-N87 and KATOIII), urothelial (J82, RT4), prostatic (PC3), breast (MX-1 and HCC 1806), colorectal (HT-29), and ovarian (SK-OV-3 and OVCAR-3) were obtained from the American Type Culture Collection (ATCC) and cultured at 37° C. in a humidified 95% air/5% CO2 atmosphere in the medium recommended by ATCC.
(§3) In vitro cell viability. Cell viability was analyzed as follows: cancer cells including pancreatic (PANC-1 and CFPAC-1), lung (HCC827 and H460), stomach (NCI-N87 and KATOIII), urothelial (J82, RT4), prostatic (PC3) and breast (MX-1 and HCC 1806), colorectal (HT-29) and ovarian (SK-OV-3 and OVCAR-3) were grown on 96 well plates to ˜60% confluence, the cells were starved for 24 h in culture medium containing 0.5% FBS. Cells were then treated with GHRH antagonists MIA602 AVR compounds at concentrations of 1, 2.5 or 5 μM, or vehicle (0.1% DMSO) in quintuplicates for 72 hours. The medium was replaced every 48 hours. Cell viability was measured using CellTiter 96 aqueous one solution kit (Promega). Inhibitory effects of tested AVR compounds in comparison to that of MIA602 are presented as inhibitory potency.
(§4) Inhibitory effects of selected AVR compounds in comparison to that of MIA602 are presented as inhibitory potency (e.g., percentage of inhibition). […] The cell lines tested including lung cancer HCC827 (FIG. 2A), pancreatic cancer CFPAC-1 (FIG. 2B), stomach cancer N87 (FIG. 2C), colon cancer HT-29 (FIG. 2D), breast cancers MX-1 and HCC1806 (FIGS. 2 E, F). Based on the results of cell proliferation assay after cancer cells were treated with antagonist at concentration of 5 μM for 72H, the relative inhibitory potency of AVR antagonists in comparison to MIA-602 is summarized in Table 3 A and B. Over 60 AVR compounds were tested in 12 cancer cell lines.
(§5) Based on the results of cell proliferation assay after cancer cells were treated with antagonist at concentration of 5 µM for 72H, * at concentration of 2 µM for 72 H.

[2] = system: HCC827 lung cancer cells; assay: In vitro cell viability, HCC827; type: cell-based, human; conditions: antagonist 5 μM for 72 h, cell proliferation assay; MIA602 = 1
Protocol: as §1, §2, §3, §4, §5

[3] = target: T1, membrane GHRH-receptors on human anterior pituitary cells (Homo sapiens, UniProt Q02643); assay: Receptor binding, displacement of 125I-[His1,Nle27]-hGH-RH(1-32)NH2 on human pituitary membranes
T1 construct: Human pituitary was purchased from the National Hormone and Peptide Program; tissue National Hormone and Peptide Program; host or cells: human pituitary (membrane fractions)
T1 sequence (Q02643 23-423): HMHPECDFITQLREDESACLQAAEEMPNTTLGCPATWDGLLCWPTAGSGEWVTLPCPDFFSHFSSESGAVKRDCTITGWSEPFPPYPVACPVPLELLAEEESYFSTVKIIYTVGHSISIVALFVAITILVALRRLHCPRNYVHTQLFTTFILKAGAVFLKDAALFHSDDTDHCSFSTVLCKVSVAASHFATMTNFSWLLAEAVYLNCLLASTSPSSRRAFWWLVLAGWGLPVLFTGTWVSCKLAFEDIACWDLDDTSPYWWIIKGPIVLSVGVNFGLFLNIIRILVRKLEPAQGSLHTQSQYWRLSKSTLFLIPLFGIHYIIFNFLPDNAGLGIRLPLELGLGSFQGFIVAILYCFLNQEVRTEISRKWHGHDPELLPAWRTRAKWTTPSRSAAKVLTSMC
Protocol: Receptor binding affinities in vitro. Preparation of human pituitary membrane fractions and receptor binding of analogs of GH-RH were performed (Halmos G, Rekasi Z, Szoke B, Schally A V. (1993) Receptor 3:87-97). Human pituitary was purchased from the National Hormone and Peptide Program. […] Relative affinities compared to hGH-RH(1-29)NH2 were calculated as the ratio of IC50 (dose causing 50% inhibition of specific binding to receptors) of the tested peptides to the IC50 of hGH-RH(1-29)NH2. The values were calculated from technical duplicate tubes.
Nineteen new AVR analogs of GHRH were tested in the receptor binding assay. Table 6 presents the IC50 values of GHRH antagonists to membrane GHRH-receptors binding on human anterior pituitary cells.

[4] = system: KATOIII stomach cancer cells; assay: In vitro cell viability, KATOIII; type: cell-based, human; conditions: antagonist 5 μM for 72 h, cell proliferation assay; MIA602 = 1
Protocol: as §1, §2, §3, §4

[5] = membrane receptors on human anterior pituitary cells, mean of two to three determinations, read-out: IC50

| Compound | relative inhibitory potency in comparison to MIA-602, Pancreatic CFPAC-1 [1] | relative inhibitory potency in comparison to MIA-602, Lung IICC827 [2] | pIC50 [3] | relative inhibitory potency in comparison to MIA-602, Stomach KATOIII [4] | pIC50 [3, 5] |
| --- | --- | --- | --- | --- | --- |
| CCCC[C@H](NC(=O)[C@@H](NC(=O)[C@H](CC(=O)O)NC(=O)[C@H](CCC(N)=O)NC(=O)[C@H](CC(C)C)NC(=O)[C@H](CC(C)C)NC(=O)[C@H](CCCCN)NC(=O)[C@H](CCCNC(=N)N)NC(=O)[C@H](C)NC(=O)[C@H](CO)NC(=O)[C@H](CC(C)C)NC(=O)[C@H](CCC(N)=O)NC(=O)[C@H](CC)NC(=O)[C@H](CC(C)C)NC(=O)[C@@H](NC(=O)[C@H](CCCCN)NC(=O)[C@H](CCCNC(=N)N)NC(=O)[C@H](Cc1ccc(OC)cc1)NC(=O)[C@H](CCCNC(=N)N)NC(=O)[C@H](CC(N)=O)NC(=O)[C@@H](NC(=O)[C@H](Cc1ccc(Cl)cc1)NC(=O)[C@@H](NC(=O)[C@H](C)NC(=O)[C@H](CC(=O)O)NC(=O)[C@@H](CCCNC(=N)N)NC(=O)[C@H](Cc1ccc(O)cc1)NC(=O)CCCCCCCCCCCNC(=O)Cc1ccccc1)[C@@H](C)CC)[C@@H](C)O)C(C)C)[C@@H](C)CC)C(=O)N[C@H](CCCNC(=N)N)C(=O)N[C@@H](CCCCNC(=N)N)C(=O)NC [AVR-234, PhAC-Ada-Tyr-DArg-Asp-Ala-Ile-Cpa-Thr-Asn-Arg-Tyr(Me)-Arg-Lys-Val-Leu-Abu-Gln-Leu-Ser-Ala-Arg-Lys-Leu-Leu-Gln-Asp-Ile-Nle-DArg-Har-NHCH3] ({PhAc-12Ado}-Y[dR]DAI[Phe(4-Cl)]TNRY(Me)RKVL[Abu]QLSARKLLQDI[Nle][dR][hArg]-NHMe) | 2.205 | 4.510 | 9.35 | 1.709 |  |
| CCCC[C@H](NC(=O)[C@@H](NC(=O)[C@H](CC(=O)O)NC(=O)[C@H](CCC(N)=O)NC(=O)[C@H](CC(C)C)NC(=O)[C@H](CC(C)C)NC(=O)[C@H](CCCN)NC(=O)[C@H](Cc1c[nH]cn1)NC(=O)[C@H](C)NC(=O)[C@H](CO)NC(=O)[C@H](CC(C)C)NC(=O)[C@H](CCC(N)=O)NC(=O)[C@H](CC)NC(=O)[C@H](CC(C)C)NC(=O)[C@@H](NC(=O)[C@H](CCCCN)NC(=O)[C@H](CCCNC(=N)N)NC(=O)[C@H](Cc1ccc(OC)cc1)NC(=O)[C@H](CCCNC(=N)N)NC(=O)[C@H](CC(N)=O)NC(=O)[C@@H](NC(=O)[C@H](Cc1ccc(Cl)cc1)NC(=O)[C@@H](NC(=O)[C@H](C)NC(=O)[C@H](CC(=O)O)NC(=O)[C@@H](CCCNC(=N)N)NC(=O)[C@H](Cc1ccc(O)cc1)NC(=O)CCCCCCCCCCCNC(=O)Cc1c(F)c(F)c(F)c(F)c1F)[C@@H](C)CC)[C@@H](C)O)C(C)C)[C@@H](C)CC)C(=O)N[C@H](CCCNC(=N)N)C(=O)N[C@@H](CCCCNC(=N)N)C(=O)NCCCCCCCCCCCC(N)=O [AVR-620, 5FPhAC-Ada-Tyr-DArg-Asp-Ala-Ile-Cpa-Thr-Asn-Arg-Tyr(Me)-Arg-Lys-Val-Leu-Abu-Gln-Leu-Ser-Ala-His-Orn-Leu-Leu-Gln-Asp-Ile-Nle-DArg-Har-Ada-NH2] ({Phenylacetyl(2,3,4,5,6-F5)-12Ado}-Y[dR]DAI[Phe(4-Cl)]TNRY(Me)RKVL[Abu]QLSAH[Orn]LLQDI[Nle][dR][hArg][12Ado]-NH2) | 1.567 | 3.753 |  | 1.769 | 9.51 |
| CCCC[C@H](NC(=O)[C@@H](NC(=O)[C@H](CC(=O)O)NC(=O)[C@H](CCC(N)=O)NC(=O)[C@H](CC(C)C)NC(=O)[C@H](CC(C)C)NC(=O)[C@H](CCCCN)NC(=O)[C@H](CCCNC(=N)N)NC(=O)[C@H](C)NC(=O)[C@H](CO)NC(=O)[C@H](CC(C)C)NC(=O)[C@H](CCC(N)=O)NC(=O)[C@H](CC)NC(=O)[C@H](CC(C)C)NC(=O)[C@@H](NC(=O)[C@H](CCCCN)NC(=O)[C@H](CCCNC(=N)N)NC(=O)[C@H](Cc1ccc(OC)cc1)NC(=O)[C@H](CCCCNC(=N)N)NC(=O)[C@H](CC(N)=O)NC(=O)[C@@H](NC(=O)[C@H](Cc1ccc(Cl)cc1)NC(=O)[C@@H](NC(=O)[C@H](C)NC(=O)[C@H](CC(=O)O)NC(=O)[C@@H](CCCNC(=N)N)NC(=O)[C@H](Cc1ccc(O)cc1)NC(=O)CCCCCCCCCCCNC(=O)Cc1ccccc1)[C@@H](C)CC)[C@@H](C)O)C(C)C)[C@@H](C)CC)C(=O)N[C@H](CCCNC(=N)N)C(=O)N[C@@H](CCCCNC(=N)N)C(=O)NCCCCCCCC(=O)NC [AVR-321, PhAC-Ada-Tyr-DArg-Asp-Ala-Ile-Cpa-Thr-Asn-Har-Tyr(Me)-Arg-Lys-Val-Leu-Abu-Gln-Leu-Ser-Ala-Arg-Lys-Leu-Leu-Gln-Asp-Ile-Nle-DArg-Har-Aoc-NHCH3] ({PhAc-12Ado}-Y[dR]DAI[Phe(4-Cl)]TN[hArg]Y(Me)RKVL[Abu]QLSARKLLQDI[Nle][dR][hArg][Aoc]-NHMe) |  |  | 9.64 | 1.414 |  |
| CCCC[C@H](NC(=O)[C@@H](NC(=O)[C@H](CC(=O)O)NC(=O)[C@H](CCC(N)=O)NC(=O)[C@H](CC(C)C)NC(=O)[C@H](CC(C)C)NC(=O)[C@H](CCCCN)NC(=O)[C@H](CCCNC(=N)N)NC(=O)[C@H](C)NC(=O)[C@H](CO)NC(=O)[C@H](CC(C)C)NC(=O)[C@H](CCC(N)=O)NC(=O)[C@H](CC)NC(=O)[C@H](CC(C)C)NC(=O)[C@@H](NC(=O)[C@H](CCCCN)NC(=O)[C@H](CCCNC(=N)N)NC(=O)[C@H](Cc1ccc(OC)cc1)NC(=O)[C@H](CCCCNC(=N)N)NC(=O)[C@H](CC(N)=O)NC(=O)[C@@H](NC(=O)[C@H](Cc1ccc(Cl)cc1)NC(=O)[C@@H](NC(=O)[C@H](C)NC(=O)[C@H](CC(=O)O)NC(=O)[C@@H](CCCNC(=N)N)NC(=O)[C@H](Cc1ccc(O)cc1)NC(=O)CCCCCCCCCCCNC(=O)Cc1c(F)c(F)c(F)c(F)c1F)[C@@H](C)CC)[C@@H](C)O)C(C)C)[C@@H](C)CC)C(=O)N[C@H](CCCNC(=N)N)C(=O)N[C@@H](CCCCNC(=N)N)C(=O)NCCCCCCCC(=O)NC [AVR-322, 5FPhAC-Ada-Tyr-DArg-Asp-Ala-Ile-Cpa-Thr-Asn-Har-Tyr(Me)-Arg-Lys-Val-Leu-Abu-Gln-Leu-Ser-Ala-Arg-Lys-Leu-Leu-Gln-Asp-Ile-Nle-DArg-Har-Aoc-NHCH3] ({Phenylacetyl(2,3,4,5,6-F5)-12Ado}-Y[dR]DAI[Phe(4-Cl)]TN[hArg]Y(Me)RKVL[Abu]QLSARKLLQDI[Nle][dR][hArg][Aoc]-NHMe) |  |  |  | 1.296 | 9.60 |
